Data taken from patent US20260053811A1, “METHODS OF TREATING HYPERTENSION IN OBESE SUBJECTS” (Mineralys Therapeutics, Inc., priority 2022, published 2026).

Test system: hypertensive subjects
Assay: Seated automated office blood pressure (AOBP) in randomized, placebo-controlled, dose-ranging study
Type: in vivo, human
Conditions: Part 1, 12.5 mg QD
Procedure: A randomized, double-blinded, placebo-controlled, dose-ranging, multicenter study was conducted to evaluate the effect of orally administered Compound A HBr on blood pressure for the treatment of hypertension in male and female subjects ≥18 years of age.
The study consists of two parts. For enrollment into Part 1 of the study, a subject's value of plasma renin activity (PRA) must be ≤1 ng/mL/h based on morning measurement. If the value of PRA >1 ng/mL/h based on morning measurement, then subjects may be eligible to enter Part 2 of the study.
For Part 1, 163 enrolled subjects ≥18 years of age were randomized into 6 equal treatment groups (1:1:1:1:1:1) to 12.5 mg BID, 25 mg BID, 12.5 mg QD, 50 mg QD, 100 mg QD, or placebo. After a review of interim clinical data, the 2 lowest dose levels (12.5 mg QD and 12.5 mg BID) were stopped for future randomization due to a lack of consistent meaningful reduction of blood pressure, but the patients randomized to that point remained in the study through completion. Thus, after the review of interim clinical data, subjects were randomized into 4 equal treatment groups (1:1:1:1) to 25 mg BID, 50 mg QD, 100 mg QD, or placebo.
For Part 2, 36 enrolled subjects ≥18 years of age were randomized (5:1) to either 100 mg QD Compound A HBr or placebo such that the Compound A HBr treatment group consisted of approximately 30 subjects and the placebo treatment group will consist of approximately 6 subjects.
Subjects orally administered the assigned study drug (Compound A HBr or placebo) according to the assigned dosing regimen for 8 weeks beginning on Study Day 1. All subjects in Part 1 (regardless of dosing group) received BID dosing to preserve the integrity of the blind; active drug is administered as the morning dose for all QD dose groups. Subjects returned to the research facility or were seen by the clinical investigator or approved home health care professional at the end of Study Weeks 1, 2, 3, 4, 5, 6, 7, and 8 (±2 days) for protocol-defined efficacy and safety assessments and procedures, assessment of adverse events (AEs), and confirmation of compliance with study drug usage. Subjects also completed a telephone visit and blood pressure (BP) check at home approximately 3 days post last dose of study drug. Subjects attended up to 14 full clinic visits, including a pre-Screening visit, a Screening/start of Placebo Run-in visit, a second visit during Placebo Run-in, a clinic visit to initiate the ABPM procedure, a Randomization visit, 8 weekly visits during double-blind treatment, and an end-of-study visit scheduled 4 weeks after the last study treatment for final efficacy and safety assessments.
An automated oscillometric sphygmomanometer device was used to measure the subjects' systolic and diastolic blood pressure in office after approximately 5 minutes of rest in the seated position.
The primary endpoint is the change in office-measured (mean of last 2 of 5 unattended measurements using an automated oscillometric sphygmomanometer device after approximately 5 minutes of rest in the seated position) systolic blood pressure (SBP) from baseline to the end of Study Week 8.
Secondary endpoints of this study were: • (a) Change in 24-hour ambulatory blood pressure monitoring (ABPM) parameters (systolic and diastolic) from baseline to the end of Study Week 7. • (b) Change in office-measured SBP from baseline to the end of Study Weeks 1, 2, 3, 4, 5, 6, and 7. • (c) Change in office-measured diastolic blood pressure (DBP) from baseline to the end of Study Weeks 1, 2, 3, 4, 5, 6, 7, and 8. • (d) Proportion of subjects who achieve office-measured BP of ≤130/80 mm Hg by the end of Study Week 8.

CC(=O)N[C@H]1CC[C@H](NC(=O)CN2CCN(c3nncc(-c4ccc(C)cc4)n3)CC2)CC1 [Compound A HBr] was tested, and the “Mean (SD) Automated Office-Measured Systolic Blood Pressure at Wk 8” value (Age 65-79 yr) was 135.63 (15.23) mmHg, the “Mean (SD) Change from Baseline at Week 8 in Automated Office-Measured Diastolic Blood Pressure” value (Age 65-79 yr) was −5.06 (7.49) mmHg and the “Mean (SD) Change from Baseline at Week 8 in Automated Office-Measured Systolic Blood Pressure” value (Age 65-79 yr) was −8.50 (14.04) mmHg. For the same compound, the “Mean (SD) Automated Office-Measured Diastolic Blood Pressure at Wk 8” value (Age <65 yr) was 82.63 (20.67) mmHg, the “Mean (SD) Automated Office-Measured Systolic Blood Pressure at Wk 8” value (Age <65 yr) was 144.88 (25.16) mmHg and the “Mean (SD) Change from Baseline at Week 8 in Automated Office-Measured Diastolic Blood Pressure” value (Age <65 yr) was −2.19 (9.98) mmHg. The “Mean (SD) Change from Baseline at Week 8 in Automated Office-Measured Systolic Blood Pressure” value (Age <65 yr) was −5.75 (22.93) mmHg, the “Mean (SD) Automated Office-Measured Diastolic Blood Pressure at Wk 8” value (Age ≥80 yr) was 93.50 (37.48) mmHg and the “Mean (SD) Automated Office-Measured Systolic Blood Pressure at Wk 8” value (Age ≥80 yr) was 145.00 (42.43) mmHg. The “Mean (SD) Change from Baseline at Week 8 in Automated Office-Measured Diastolic Blood Pressure” value (Age ≥80 yr) was 13.00 (37.48) mmHg, the “Mean (SD) Change from Baseline at Week 8 in Automated Office-Measured Systolic Blood Pressure” value (Age ≥80 yr) was −4.75 (39.95) mmHg and the “Mean (SD) Automated Office-Measured Diastolic Blood Pressure at Wk 8” value (BMI 25−30 kg/m^2) was 76.00 (6.22) mmHg. For the same compound, the “Mean (SD) Change from Baseline at Week 8 in Automated Office-Measured Diastolic Blood Pressure” value (BMI 25−30 kg/m^2) was −4.64 (7.81) mmHg, the “Mean (SD) Automated Office-Measured Diastolic Blood Pressure at Wk 8” value (BMI <25 kg/m^2) was 73.00 (NE) mmHg and the “Mean (SD) Change from Baseline at Week 8 in Automated Office-Measured Diastolic Blood Pressure” value (BMI <25 kg/m^2) was −1.50 (NE) mmHg. The “Mean (SD) Automated Office-Measured Diastolic Blood Pressure at Wk 8” value (BMI >30 kg/m^2) was 86.10 (21.92) mmHg, the “Mean (SD) Change from Baseline at Week 8 in Automated Office-Measured Diastolic Blood Pressure” value (BMI >30 kg/m^2) was 0.20 (16.85) mmHg and the “Mean (SD) Automated Office-Measured Systolic Blood Pressure at Wk 8” value (BMI at baseline 25-30 kg/m^2) was 134.14 (18.96) mmHg. The “Mean (SD) Change from Baseline at Week 8 in Automated Office-Measured Systolic Blood Pressure” value (BMI at baseline 25-30 kg/m^2) was −7.71 (19.07) mmHg, the “Mean (SD) Automated Office-Measured Systolic Blood Pressure at Wk 8” value (BMI at baseline <25 kg/m^2) was 137.00 (NE) mmHg and the “Mean (SD) Change from Baseline at Week 8 in Automated Office-Measured Systolic Blood Pressure” value (BMI at baseline <25 kg/m^2) was −11.50 (NE) mmHg. The “Mean (SD) Automated Office-Measured Systolic Blood Pressure at Wk 8” value (BMI at baseline >30 kg/m^2) was 145.80 (24.73) mmHg, the “Mean (SD) Change from Baseline at Week 8 in Automated Office-Measured Systolic Blood Pressure” value (BMI at baseline >30 kg/m^2) was −5.80 (22.31) mmHg and the “Mean (SD) Automated Office-Measured Diastolic Blood Pressure at Wk 8” value (Race Black or AA) was 85.00 (19.41) mmHg. For the same compound, the “Mean (SD) Automated Office-Measured Systolic Blood Pressure at Wk 8” value (Race Black or AA) was 147.50 (22.06) mmHg, the “Mean (SD) Change from Baseline at Week 8 in Automated Office-Measured Diastolic Blood Pressure” value (Race Black or AA) was −0.69 (7.56) mmHg and the “Mean (SD) Change from Baseline at Week 8 in Automated Office-Measured Systolic Blood Pressure” value (Race Black or AA) was −1.44 (16.04) mmHg. For the same compound, the “Mean (SD) Automated Office-Measured Diastolic Blood Pressure at Wk 8” value (Race Other) was 78.60 (15.76) mmHg, the “Mean (SD) Automated Office-Measured Systolic Blood Pressure at Wk 8” value (Race Other) was 135.40 (21.55) mmHg and the “Mean (SD) Change from Baseline at Week 8 in Automated Office-Measured Diastolic Blood Pressure” value (Race Other) was −2.65 (17.00) mmHg. For the same compound, the “Mean (SD) Change from Baseline at Week 8 in Automated Office-Measured Systolic Blood Pressure” value (Race Other) was −11.20 (22.29) mmHg, the “Mean (SD) Automated Office-Measured Diastolic Blood Pressure at Wk 8” value (Seated SBP Tertile High) was 84.22 (23.90) mmHg and the “Mean (SD) Change from Baseline at Week 8 in Automated Office-Measured Diastolic Blood Pressure” value (Seated SBP Tertile High) was −1.06 (18.28) mmHg. For the same compound, the “Mean (SD) Automated Office-Measured Diastolic Blood Pressure at Wk 8” value (Seated SBP Tertile Low) was 78.50 (7.48) mmHg, the “Mean (SD) Change from Baseline at Week 8 in Automated Office-Measured Diastolic Blood Pressure” value (Seated SBP Tertile Low) was −4.17 (6.69) mmHg and the “Mean (SD) Automated Office-Measured Diastolic Blood Pressure at Wk 8” value (Seated SBP Tertile Middle) was 79.00 (5.57) mmHg. For the same compound, the “Mean (SD) Change from Baseline at Week 8 in Automated Office-Measured Diastolic Blood Pressure” value (Seated SBP Tertile Middle) was 0.83 (5.62) mmHg, the “Mean (SD) Automated Office-Measured Diastolic Blood Pressure at Wk 8” value (Sex Female) was 75.11 (8.40) mmHg and the “Mean (SD) Automated Office-Measured Systolic Blood Pressure at Wk 8” value (Sex Female) was 136.00 (17.23) mmHg. For the same compound, the “Mean (SD) Change from Baseline at Week 8 in Automated Office-Measured Diastolic Blood Pressure” value (Sex Female) was −4.83 (8.08) mmHg, the “Mean (SD) Change from Baseline at Week 8 in Automated Office-Measured Systolic Blood Pressure” value (Sex Female) was −9.22 (10.54) mmHg and the “Mean (SD) Automated Office-Measured Diastolic Blood Pressure at Wk 8” value (Sex Male) was 87.78 (21.70) mmHg. For the same compound, the “Mean (SD) Automated Office-Measured Systolic Blood Pressure at Wk 8” value (Sex Male) was 145.56 (26.10) mmHg, the “Mean (SD) Change from Baseline at Week 8 in Automated Office-Measured Diastolic Blood Pressure” value (Sex Male) was 1.28 (17.06) mmHg and the “Mean (SD) Automated Office-Measured Systolic Blood Pressure at Wk 8” value (Systolic Blood Pressure Tertile at Baseline High) was 146.33 (26.41) mmHg.
